Reference: patent US7101878B1 (Agouron Pharmaceuticals, Inc., priority 1998, dated 2006)
Read-outs that look alike come from different tables or passages of the source.

Biological target: T1, human GnRH receptor (Homo sapiens, UniProt P30968)
T1 construct: expressed in transfected cells; host or cells: HEK 293 (hGnRH-R/293, from Dr. Stuart Sealfon)
T1 sequence (P30968 1-328): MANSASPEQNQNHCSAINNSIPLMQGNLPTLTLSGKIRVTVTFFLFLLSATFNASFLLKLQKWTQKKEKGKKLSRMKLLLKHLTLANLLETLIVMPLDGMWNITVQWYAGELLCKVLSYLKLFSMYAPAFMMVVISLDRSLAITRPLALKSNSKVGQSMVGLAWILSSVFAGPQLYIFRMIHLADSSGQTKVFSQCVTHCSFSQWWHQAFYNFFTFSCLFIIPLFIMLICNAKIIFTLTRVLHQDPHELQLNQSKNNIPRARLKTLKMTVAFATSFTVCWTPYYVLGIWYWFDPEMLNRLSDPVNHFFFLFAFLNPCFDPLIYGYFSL
Test: Radioligand binding, 125I-GnRH-A displacement, membranes of HEK 293 cells with human GnRH receptor
Conditions: for IC50: read-out: hGnRH IC50; for remaining activity at 10 µM / remaining activity at 1 µM: substrate remaining, closer to zero = closer to 100% inhibition; for remaining activity at 10 µM: 10 uM compound, read-out: S%R 10 uM hGnRHR; for remaining activity at 1 µM: 1 uM compound, read-out: S%R 1 uM hGnRHR
How it was run: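 After filtration and PBS washes, bound radioactivity was counted by scintillation and IC50 derived. Identical conditions applied for non-human receptors.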

[1] = 1 uM, read-out: % Inhib. @ 1 uM hGnRH
[2] = 1 h, repeat of % Inhib. at 1 uM, read-out: Repeats @ 1 uM hGnRH

| inhibition at 1 µM [1] [%] | inhibition at 1 µM [2] [%] | Structure (SMILES) | also measured |
| --- | --- | --- | --- |
| 28 | 45 | Cc1cc2c(cc1Cc1ccc(C(=O)NC(C)(C)c3ccccc3)o1)C(C)(C)CCC2(C)C | – |
| 16 | 7 | Cc1cc2c(cc1Cc1ccc(C(=O)NC(CO)CSCc3ccccc3)o1)C(C)(C)CCC2(C)C (stereo not shown) | – |
| 11 | 6 | Cc1cc2c(cc1Cc1ccc(C(=O)NCc3ccccc3C(F)(F)F)o1)C(C)(C)CCC2(C)C [drawing 997] | – |
| 93 | 95 | Cc1cccc(CNC(=O)c2ccc(Cc3cc4c(cc3C)C(C)(C)CCC4(C)C)o2)c1 [drawing 1174] | – |
| -2 | 6 | Cc1cc2c(cc1Cc1ccc(C(=O)N[C@H](C)[C@H](O)c3ccc(O)cc3)o1)C(C)(C)CCC2(C)C | – |
| 29 | 32 | CCc1ccc(CCNC(=O)c2ccc(Cc3cc4c(cc3C)C(C)(C)CCC4(C)C)o2)cc1 | – |
| 17 | 26 | Cc1cc2c(cc1Cc1ccc(C(=O)NC(CO)c3ccccc3)o1)C(C)(C)CCC2(C)C (stereo not shown) | – |
| 15 | 21 | Cc1cc2c(cc1Cc1ccc(C(=O)NCCc3cccc(Cl)c3)o1)C(C)(C)CCC2(C)C | – |
| 14 | 27 | Cc1cc2c(cc1Cc1ccc(C(=O)NC3CCCc4ccccc43)o1)C(C)(C)CCC2(C)C (stereo not shown) [drawing 1127] | – |
| 51 | 54 | Cc1cc2c(cc1Cc1ccc(C(=O)NCc3ccccc3Sc3ccccc3CO)o1)C(C)(C)CCC2(C)C | – |

The next lines start with the molecule.

| Structure (SMILES) | inhibition at 1 µM [1] [%] | inhibition at 1 µM [2] [%] | also measured |
| --- | --- | --- | --- |
| Cc1cc2c(cc1Cc1ccc(C(=O)NCCCCCCNC(=O)c3ccc(Cc4cc5c(cc4C)C(C)(C)CCC5(C)C)o3)o1)C(C)(C)CCC2(C)C [Compound 28] | – | – | IC50: > 10 µM |
| Cc1cc2c(cc1Cc1ccc(C(=O)Nc3ccc4[nH]c(O)nc4c3)o1)C(C)(C)CCC2(C)C [Compound 355] | – | – | remaining activity at 10 µM (1 h): 20% |
| CCN(CCNC(=O)c1ccc(Cc2cc3c(cc2C)C(C)(C)CCC3(C)C)o1)c1cccc(C)c1 | 2 | 21 | – |
| Cc1cc2c(cc1Cc1ccc(C(=O)Nc3nnc(C4CC4)s3)o1)C(C)(C)CCC2(C)C [Compound 336] | – | – | remaining activity at 10 µM (1 h): 57% |
| CSc1ccc(NC(=O)c2ccc(Cc3cc4c(cc3C)C(C)(C)CCC4(C)C)o2)cc1 [Compound 366] | – | – | remaining activity at 10 µM (1 h): 37% |
| Cc1cc2c(cc1Cc1ccc(C(=O)NCc3cccs3)o1)C(C)(C)CCC2(C)C [Compound 415] | – | – | remaining activity at 1 µM (1 h): 18% |
| Cc1cc2c(cc1Cc1ccc(C(=O)N(Cc3ccccn3)CC(C)C)o1)C(C)(C)CCC2(C)C [Compound 215] | – | – | IC50: 7.8 µM |
| COc1cccc(OC)c1NC(=O)c1ccc(Cc2cc(C(C)C)c(O)cc2C)o1 [Compound 303] | – | – | IC50: 0.32 µM |
| Cc1cc2c(cc1Cc1ccc(C(=O)Nc3nc(Cl)c4nc[nH]c4n3)o1)C(C)(C)CCC2(C)C [Compound 353] | – | – | remaining activity at 10 µM (1 h): -4% |
| Cc1cc2c(cc1Cc1ccc(C(=O)Nc3ccc(Br)c4ccccc34)o1)C(C)(C)CCC2(C)C [Compound 388] | – | – | remaining activity at 10 µM (1 h): 30% |
| COC(=O)c1ccc(NC(=O)c2ccc(Cc3cc4c(cc3C)C(C)(C)CCC4(C)C)o2)cc1OC [Compound 374] | – | – | remaining activity at 10 µM (1 h): 13% |
| Cc1cc2c(cc1Cc1ccc(C(=O)N3CCN(c4ncccn4)CC3)o1)C(C)(C)CCC2(C)C [drawing 1124] | -2 | 3 | – |
| Cc1cc2c(cc1Cc1ccc(C(=O)NC(CO)Cc3ccccc3)o1)C(C)(C)CCC2(C)C (stereo not shown) [Compound 420] | – | – | remaining activity at 1 µM (1 h): 28% |
| Cc1cc2c(cc1Cc1ccc(C(=O)Nn3c(N)nc(C(F)(F)F)cc3=O)o1)C(C)(C)CCC2(C)C | – | – | inhibition at 10 µM (repeat, read-out: Repeats @ 10 uM hGnRH (% inhib.)): -5%; inhibition at 10 µM (read-out: % inhib. @ 10 uM hGnRH): -10% |
| Cc1cc2c(cc1Cc1ccc(C(=O)Nc3ccccc3CCO)o1)C(C)(C)CCC2(C)C [Compound 327] | – | – | remaining activity at 10 µM (1 h): 0% |
| Cc1cc2c(cc1Cc1ccc(C(=O)NCc3ccc(F)cc3F)o1)C(C)(C)CCC2(C)C [drawing 1197] | 74 | 81 | – |
